# Data from US20230272460A1, “Method for Targeted Nucleic Acid Cleavage” (Cambridge Enterprise Limited, priority 2020, published 2023).
# System: 18S and BRD4 transcripts in MOLM13 cells
# Assay: Cellular RNA degradation reactions (acCLICK-Seq), RT-qPCR
# Type: cell-based, human
# Experimental: MOLM13 cells were suspended RPMI-1640 media (Gibco) supplemented with 10% v/v FBS and 1% v/v penicillin/streptomycin/L-glutamine at a density of 1,000,000 cells mL^-1. The cells were incubated for 30 min at 37° C. followed by addition of ethyl-3-butynoate at a final concentration of 200 μM. Treated cells were incubated for further 24 h at 37° C. […] Levels of specific RNAs were measured using fast mode of QuantStudio 3 Real-Time PCR System (Applied Biosystems) and PowerUpTM SYBR Green Master Mix (Applied Biosystems) according to the manufacturer's instructions. In the qPCR analysis RNA levels were normalised to the 5S gene ([…]) or the GAPDH gene (glycoCLICK-seq). These housekeeping gene was chosen as their levels fluctuated the least under various conditions tested.
smiles,measurement,setting,value
"C#CCC(=O)OCC [ethyl-3-butynoate, Ethyl-3-butynoate]","relative expression levels of 18S and BRD4 transcripts, clicked versus non-clicked control cells","WT MOLM13, ethyl-3-butynoate 200 μM 24 h, then click-degrader 1 400 μM CuAAC",reduction
same,expression levels of 18S and BRD4 transcripts in clicked cells,cells with NAT10 knocked-out,rescued
